Results from patent publication US9259411B2, “Neuronal circuit-dependent neuroprotection by interaction between nicotinic receptors” (priority 2006, dated 2016).

Legend:
α3β4 nAChRs = α3β4 nAChRs (Homo sapiens, UniProt P30926+P32297); details: inhibits the function of α3β4 nAChRs; cited from earlier work
α4β2 nAChRs = α4β2 nAChRs (Homo sapiens, UniProt P17787+P43681); details: inhibits the function of α4β2 nAChRs; cited from earlier work
α3β4 = α3β4 (Homo sapiens, UniProt P30926+P32297); details: cited from earlier work
Sequence of α3β4 (P32297 32-505): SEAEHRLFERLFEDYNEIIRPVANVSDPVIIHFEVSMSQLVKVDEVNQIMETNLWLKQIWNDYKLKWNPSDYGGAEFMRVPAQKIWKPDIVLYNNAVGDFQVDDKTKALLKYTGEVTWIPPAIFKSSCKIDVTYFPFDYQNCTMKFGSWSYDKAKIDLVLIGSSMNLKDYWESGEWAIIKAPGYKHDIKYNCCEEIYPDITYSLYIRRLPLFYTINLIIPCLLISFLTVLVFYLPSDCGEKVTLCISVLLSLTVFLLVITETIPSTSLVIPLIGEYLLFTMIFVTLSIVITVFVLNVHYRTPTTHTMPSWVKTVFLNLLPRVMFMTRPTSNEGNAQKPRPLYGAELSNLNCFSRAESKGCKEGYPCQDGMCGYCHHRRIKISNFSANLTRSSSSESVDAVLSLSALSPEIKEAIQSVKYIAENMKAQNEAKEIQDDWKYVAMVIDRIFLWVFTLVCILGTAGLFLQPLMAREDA
Sequence of α3β4 (P30926 22-498): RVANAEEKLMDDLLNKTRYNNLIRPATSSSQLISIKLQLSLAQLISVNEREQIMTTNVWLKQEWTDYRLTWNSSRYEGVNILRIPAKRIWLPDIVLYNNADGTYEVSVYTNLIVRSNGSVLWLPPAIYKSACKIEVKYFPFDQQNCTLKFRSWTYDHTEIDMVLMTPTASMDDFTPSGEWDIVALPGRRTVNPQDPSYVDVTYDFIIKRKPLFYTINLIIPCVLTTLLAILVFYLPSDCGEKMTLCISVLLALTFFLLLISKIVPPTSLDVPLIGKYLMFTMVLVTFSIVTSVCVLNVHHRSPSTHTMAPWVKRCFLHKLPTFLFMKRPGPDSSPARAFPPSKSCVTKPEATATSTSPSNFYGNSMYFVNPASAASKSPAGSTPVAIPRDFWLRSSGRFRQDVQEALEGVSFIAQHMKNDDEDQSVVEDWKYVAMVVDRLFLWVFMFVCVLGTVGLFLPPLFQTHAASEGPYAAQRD

α7 = α7 (Homo sapiens, UniProt P36544); details: cited from earlier work
Sequence of α7 (P36544 23-502): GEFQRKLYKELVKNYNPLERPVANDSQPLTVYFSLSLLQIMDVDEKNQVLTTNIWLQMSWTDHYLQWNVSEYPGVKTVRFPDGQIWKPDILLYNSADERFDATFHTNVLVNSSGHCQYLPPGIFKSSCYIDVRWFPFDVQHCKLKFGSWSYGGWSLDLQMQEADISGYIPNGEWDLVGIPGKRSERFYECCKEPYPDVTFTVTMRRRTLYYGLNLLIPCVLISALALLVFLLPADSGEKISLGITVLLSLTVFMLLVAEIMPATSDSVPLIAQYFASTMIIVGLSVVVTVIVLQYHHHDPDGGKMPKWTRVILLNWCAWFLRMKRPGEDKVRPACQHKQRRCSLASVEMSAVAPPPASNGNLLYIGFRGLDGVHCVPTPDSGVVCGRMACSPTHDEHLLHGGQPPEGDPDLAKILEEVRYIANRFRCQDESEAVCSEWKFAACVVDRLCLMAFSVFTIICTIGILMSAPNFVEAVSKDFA

Akt Ser473 = assay: Western blot of phosphorylated Akt in CA1 of hippocampal slices; type: cell-based, rat; details: 1 μM DHβE alone, 20 min
Protocol: For immunoassays of phosphorylated proteins, in the initial experiments slices were incubated in the same conditions as for PS determination. Later, the slices were incubated by being submerged in a static chamber on culture insets (Millicell; Millipore, Billerica, Mass.) to avoid drying during timed removal of slices.
Slices were prepared and maintained as described above. Treatments started after 2 hr of incubation in ACSF. […] At the corresponding time, each slice was removed and the CA1 region microdissected, frozen on dry ice, and stored at −80° C. until assayed. […] Final detection was carried out with enhance chemiluminescence methodology (Pierce Supersignal West Dura) and the intensity of the signal measured in a gel documentation system (Versa Doc Model 1000; Bio-Rad). […] Normalization of the signal of the phosphokinase to the total amount of proteins, measured by densitometry of the stained membrane, was used as the relevant parameter, which was the level of activity of the kinase. This method was validated with several isolated cells and tissues and determined a linear relationship between the amount of total protein (as measured by densitometry) and total kinases (as measured by chemiluminescence) within the range of proteins employed in these experiments (4-12 μg total protein). […]

[1] = system: CA1 neurons of hippocampal slices; assay: Neuroprotection against NMDA excitotoxicity: recovery of population spikes in acute hippocampal slices; type: cell-based, rat; details: for Effect on the neuroprotection caused by the substance: 10 μM PD98059: main target ERK-1,2 kinase; for effect of nifedipine on the neuroprotection: 10 μM nifedipine; for effect of PD98059 on the neuroprotection: 50 μM PD98059
Protocol: Male Sprague-Dawley rats (120-200 g) were maintained and sacrificed according to standard procedures reviewed and approved by the Institutional Animal Care and Use Committee. […] Briefly, hippocampi were dissected over ice; transversal 400-μm-thick slices were cut with a manual slicer and immediately transferred to the incubation chamber, thus preserving the neurons in their native environment. The chamber consisted of a temperature-controlled bath surrounding an acrylic plate covered with nylon mesh; the plate was divided into three lanes with independent perfusion. […] C. A bipolar electrode placed in the stratum radiatum was used to stimulate the Shaffer collateral incoming fibers with a constant current for 0.2 msec. The resulting population spike (PS) was recorded in stratum pyramidale with a glass electrode filled with 2 M NaCl, having an impedance of 1-5 M.OMEGA.
About 30 slices from the hippocampi of two rats were distributed equally among three lanes of an incubation chamber. A maximum of seven slices were analyzed per lane for each individual experiment, and on average 21 slices per condition were tested for each experimental condition. […] Because the neurons are maintained in their native environment and in contact with other cells, stimulation with the appropriate stimulus can elicit a PS. One hour after dissection, each slice was stimulated with a stimulus twice the strength required to elicit a threshold PS. This initial response was recorded as PS area (msec×mV) and compared to the final response elicited by the same stimulus strength recorded from the same position after the experimental treatment was finished. The slices were washed for 1 hr with normal ACSF to eliminate lingering drugs and any short-lived effects. […] The percentage of the initial response remaining at the end of the experiment was used as a measure of electrophysiological recovery.
The areas of PSs (mV/msec) were acquired and analyzed with the Labman program. The data were statistically analyzed with SigmaStat v2.03 (SPSS, Chicago, Ill.). One-way analysis of variance (ANOVA) was used whenever the data were distributed normally. […] In these cases, the less powerful nonparametric Kruskal-Wallis one-way ANOVA on ranks was used. The post-hoc test used was the Student-Newman-Keuls test for normally distributed data and Dunn's test for data that was not normally distributed.

[2] = system: CA1 neurons of hippocampal slices; details: cited from earlier work; for effect of DHβE on the neuroprotection (reported): 1 μM DHβE, 10 nM MLA
α7 nAChRs = α7 nAChRs (Rattus norvegicus, UniProt Q05941); details: against the α7 nAChRs; cited from earlier work
Sequence of α7 nAChRs (Q05941 23-502): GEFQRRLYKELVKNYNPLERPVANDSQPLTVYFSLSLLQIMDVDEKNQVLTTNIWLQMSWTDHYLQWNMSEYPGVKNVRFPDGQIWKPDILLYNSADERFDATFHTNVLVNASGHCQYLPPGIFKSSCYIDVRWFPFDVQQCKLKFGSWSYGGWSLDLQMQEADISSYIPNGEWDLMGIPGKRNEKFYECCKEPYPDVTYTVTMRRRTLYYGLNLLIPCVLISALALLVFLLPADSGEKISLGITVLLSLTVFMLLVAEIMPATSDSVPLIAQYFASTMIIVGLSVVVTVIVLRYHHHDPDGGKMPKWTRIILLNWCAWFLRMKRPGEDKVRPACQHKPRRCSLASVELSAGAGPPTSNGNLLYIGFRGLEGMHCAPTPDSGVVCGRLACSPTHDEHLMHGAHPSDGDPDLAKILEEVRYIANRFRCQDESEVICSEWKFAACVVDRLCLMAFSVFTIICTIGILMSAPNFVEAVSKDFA

NMDA receptors = details: against the NMDA receptors; cited from earlier work

Sequence of α3β4 nAChRs (P32297 32-505): as the sequence (P32297 32-505) above
Sequence of α3β4 nAChRs (P30926 22-498): as the sequence (P30926 22-498) above
Sequence of α4β2 nAChRs (P43681 29-627 limits assumed): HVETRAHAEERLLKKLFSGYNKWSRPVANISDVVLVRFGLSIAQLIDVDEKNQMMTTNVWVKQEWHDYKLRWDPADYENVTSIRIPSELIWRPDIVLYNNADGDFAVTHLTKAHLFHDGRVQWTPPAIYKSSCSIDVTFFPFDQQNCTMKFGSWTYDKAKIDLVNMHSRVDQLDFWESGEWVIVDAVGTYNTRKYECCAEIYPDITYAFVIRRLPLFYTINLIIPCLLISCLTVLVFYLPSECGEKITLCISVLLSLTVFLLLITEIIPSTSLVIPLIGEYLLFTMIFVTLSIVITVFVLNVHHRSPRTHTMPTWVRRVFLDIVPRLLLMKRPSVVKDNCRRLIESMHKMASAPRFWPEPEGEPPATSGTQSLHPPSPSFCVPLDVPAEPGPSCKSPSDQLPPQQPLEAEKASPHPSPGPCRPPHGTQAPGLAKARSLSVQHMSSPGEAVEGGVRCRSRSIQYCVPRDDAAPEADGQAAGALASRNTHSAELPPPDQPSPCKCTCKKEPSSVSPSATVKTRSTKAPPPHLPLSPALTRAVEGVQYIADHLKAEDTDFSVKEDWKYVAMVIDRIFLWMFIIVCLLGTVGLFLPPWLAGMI
Sequence of α4β2 nAChRs (P17787 26-502): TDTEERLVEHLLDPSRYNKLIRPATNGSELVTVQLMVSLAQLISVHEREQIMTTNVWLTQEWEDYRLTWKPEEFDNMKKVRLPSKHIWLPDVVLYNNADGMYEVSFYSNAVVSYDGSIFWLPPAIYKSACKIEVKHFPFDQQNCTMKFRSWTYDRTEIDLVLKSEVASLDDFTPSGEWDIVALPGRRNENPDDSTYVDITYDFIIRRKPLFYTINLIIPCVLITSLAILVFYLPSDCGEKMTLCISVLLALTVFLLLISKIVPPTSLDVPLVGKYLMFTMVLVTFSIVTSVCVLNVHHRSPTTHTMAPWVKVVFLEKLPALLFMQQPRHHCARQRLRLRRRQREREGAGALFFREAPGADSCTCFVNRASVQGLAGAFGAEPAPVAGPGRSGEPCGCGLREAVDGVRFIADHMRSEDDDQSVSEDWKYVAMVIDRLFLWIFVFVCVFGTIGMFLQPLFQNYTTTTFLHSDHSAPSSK

CC1=CC(O)CC(C)(O)C=CC(C(C)C)CCC(C)=CCC1 [4R, (1S,2E,4R,6R,7E,11E)-cembra-2,7,11-triene-4,6-diol]
IC50 (α3β4 nAChRs): 2.2 µM
IC50 (α4β2 nAChRs): 19.1 µM

CO[C@H]1CC=C2CCN3CCC4=C(CC(=O)OC4)[C@]23C1 [DHβE, Dihydro-Beta-erithroidine]
Ki (α3β4): 218 µM
Ki (α7): 25 to 57 µM
Akt phosphorylation (Akt Ser473): did not affect

CCN1C[C@]2(COC(=O)c3ccccc3N3C(=O)C[C@H](C)C3=O)CC[C@H](OC)[C@@]34[C@@H]5C[C@H]6[C@H](OC)[C@@H]5[C@](O)(C[C@@H]6OC)[C@@](O)([C@@H](OC)[C@H]23)[C@@H]14 [MLA, methyllycaconitine]
Effect on the neuroprotection caused by the substance: 10 μM PD98059 [1]: 0
effect of DHβE on the neuroprotection (reported) [2]: blocked
neuroprotection (reported) ([2]; literature report): neuroprotective

CC12CC3CC(C)(C1)CC(N)(C3)C2 [Memantine, memantine]
IC50 (α7 nAChRs): 0.34 µM
IC50 (NMDA receptors): 5.1 µM
effect of DHβE on the neuroprotection ([1]; 1 μM DHβE, 2 μM 4R): inhibited
effect of nifedipine on the neuroprotection [1]: blocked
effect of PD98059 on the neuroprotection ([1]; 2 μM 4R, 1 μM nicotine): not inhibited
shape of the dose-response curve for neuroprotection ([1]; FIGS. 20A-B): bell-shaped
concentrations of dose-dependent neuroprotection ([1]; effect decreases at higher concentrations): below 3 μM
effect of inhibitors of PI3-kinase on the neuroprotection ([1]; inhibitors of PI3-kinase): blocked
Effect on the neuroprotection caused by the substance: 10 μM PD98059 [1]: 0
Effect on the neuroprotection caused by the substance: 0.1 μM Ro31 -8220 ([1]; main target PKC): 0
effect of vesamicol on the neuroprotection ([1]; vesamicol): blocked

CN1CCCC1c1cccnc1 (stereo not drawn) [Nicotine, nicotine]
effect of Ro-31-8220 on the neuroprotection ([1]; 100 nM Ro-31-8220, 2 μM 4R, 1 μM nicotine): did inhibit
effect of APV on the neuroprotection ([1]; 0.4 μM APV, 2:M 4R or 1:M nicotine): only a nonsignificant decrement
effect of KT5720 on the neuroprotection ([1]; 0.5 μM KT5720, 2 μM 4R, 1 μM nicotine): partially decreased
recovery ([1]; 1 μM during 1 hr followed by 0.5 mM NMDA): more than 80%
effect of KN-62 on the neuroprotection ([1]; 9 μM KN-62): did not prevent a significant neuroprotection
effect of nifedipine on the neuroprotection [1]: did not inhibit
effect of DNQX on the neuroprotection ([1]; 50 μM DNQX, 2 μM 4R, 1 μM nicotine): recovered significantly more activity
effect of PD98059 on the neuroprotection ([1]; 2 μM 4R, 1 μM nicotine): annulled
Effect on the neuroprotection caused by the substance: 9 μMKN-62 ([1]; main target CaM kinases): 0
Effect on the neuroprotection caused by the substance: 10 μM Nifedipine ([1]; main target L-type VGCC): 0
Effect on the neuroprotection caused by the substance: 4 μMAPV ([1]; main target NMDA receptors): 0
Effect on the neuroprotection caused by the substance: 50 μM Vesarnicol ([1]; main target Synaptic ACh release): 0
effect of DHβE on the neuroprotection (reported) [2]: blocked

Cn1cc(C2=C(c3ccc(Cl)cc3Cl)C(=O)NC2=O)c2ccccc21 [SB 216763]
neuroprotection ([1]; 100 μM applied 1 hr before or after 0.5 mM NMDA, n=21): neuroprotective only when applied after NMDA
